Laboratory results published in PMC8813842 (Clinical Pharmacokinetics, 2021).
“Also recorded” adds a separate entry of the source.

Tests used:
xanthine oxidase (XO) = xanthine oxidase (XO) (Homo sapiens, UniProt P47989); conditions: in the first 24 h after birth
[1] = Population PK of allopurinol and oxypurinol in HIE neonates; type: in vivo, human; conditions: for Patients reaching the predefined AUC12 target: ALBINO study; for AUC: human, plasma, intravenous, 20 mg/kg; for Difference in CL between males and females: sex as covariate on CL; for Difference in CL between TH and non-TH patients: therapeutic hypothermia as categorical covariate on CL
[2] = renal, URAT1 most important transporter; cited from earlier work

xanthine oxidase (XO), sequence (P47989 whole entry): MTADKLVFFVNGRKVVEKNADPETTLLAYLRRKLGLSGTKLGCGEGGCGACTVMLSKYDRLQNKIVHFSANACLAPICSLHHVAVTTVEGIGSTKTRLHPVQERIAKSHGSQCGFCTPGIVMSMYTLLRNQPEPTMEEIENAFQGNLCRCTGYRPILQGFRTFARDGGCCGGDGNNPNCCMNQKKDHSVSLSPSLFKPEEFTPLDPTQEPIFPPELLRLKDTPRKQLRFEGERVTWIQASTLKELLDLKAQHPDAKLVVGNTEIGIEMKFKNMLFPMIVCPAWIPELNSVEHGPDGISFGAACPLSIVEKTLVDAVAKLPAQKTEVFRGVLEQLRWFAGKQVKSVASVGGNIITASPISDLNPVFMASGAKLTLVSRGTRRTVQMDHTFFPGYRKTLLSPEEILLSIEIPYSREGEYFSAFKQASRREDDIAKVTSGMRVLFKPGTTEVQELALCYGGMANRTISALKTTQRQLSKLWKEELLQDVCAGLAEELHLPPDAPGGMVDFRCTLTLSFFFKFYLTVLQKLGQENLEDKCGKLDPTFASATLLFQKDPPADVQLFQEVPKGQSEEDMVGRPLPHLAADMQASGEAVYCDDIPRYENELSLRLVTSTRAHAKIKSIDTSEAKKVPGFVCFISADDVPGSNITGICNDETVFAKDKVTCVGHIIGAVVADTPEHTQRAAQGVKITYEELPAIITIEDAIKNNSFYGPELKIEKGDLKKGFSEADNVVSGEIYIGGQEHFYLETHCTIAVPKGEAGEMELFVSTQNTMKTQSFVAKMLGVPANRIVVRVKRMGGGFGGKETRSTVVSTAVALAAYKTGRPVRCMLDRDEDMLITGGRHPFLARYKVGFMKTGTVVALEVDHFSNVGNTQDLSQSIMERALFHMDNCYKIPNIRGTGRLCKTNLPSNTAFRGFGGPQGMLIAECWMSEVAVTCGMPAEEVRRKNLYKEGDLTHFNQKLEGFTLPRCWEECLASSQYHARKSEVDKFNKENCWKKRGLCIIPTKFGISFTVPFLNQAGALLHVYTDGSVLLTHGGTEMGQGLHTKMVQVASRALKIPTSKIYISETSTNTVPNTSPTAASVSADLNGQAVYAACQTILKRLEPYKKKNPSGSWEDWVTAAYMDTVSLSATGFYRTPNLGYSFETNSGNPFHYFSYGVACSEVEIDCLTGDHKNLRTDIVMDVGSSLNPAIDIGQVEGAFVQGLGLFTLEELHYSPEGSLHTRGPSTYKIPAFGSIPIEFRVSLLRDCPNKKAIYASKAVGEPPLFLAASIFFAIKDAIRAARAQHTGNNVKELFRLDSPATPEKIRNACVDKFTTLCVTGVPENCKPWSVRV

| Decrease of estimated allopurinol CL due to autoinhibition (xanthine oxidase (XO)) [%] | Patients reaching the predefined AUC12 target ([1]; TH group) [%] | Patients reaching the predefined AUC12 target ([1]; non-TH group) | AUC [1] [ng·h/mL] | Difference in CL between males and females [1] | Structure (SMILES) | Difference in CL between TH and non-TH patients [1] | Glomerular filtered oxypurinol actively reabsorbed [2] |
| --- | --- | --- | --- | --- | --- | --- | --- |
| 70 | 92 | all patients reached the targets | 160000 ± 62600 | No significant difference | Oc1ncnc2[nH]ncc12 [allopurinol] | No difference; also recorded: no significant differences; also recorded: not significantly different; also recorded: Clearances of allopurinol and oxypurinol were not significantly different between TH and non-TH patients |  |
|  | 61 | all patients reached the targets | 37400 ± 12800 | No significant difference | O=c1[nH]c(=O)c2c[nH]nc2[nH]1 [oxypurinol] | No difference; also recorded: no significant differences; also recorded: not significantly different; also recorded: Clearances of allopurinol and oxypurinol were not significantly different between TH and non-TH patients | approximately 80% |
